The assay deals with Mycobacterium tuberculosis strain H37Rv. Nature of the assay: Screen against Mycobacterium tuberculosis strain H37Rv by serial dilution. It is filed as cell-based. The settings on record: M. tuberculosis H37Rv. The source says:
All of the compounds were screened against Mycobacterium tuberculosis strain H37Rv by serial dilution. The minimum inhibitory concentration and degree of inhibition is presented.
As for `N=C(NCCCCCCNC(=N)NC(=N)Nc1ccc(Cl)cc1)NC(=N)Nc1ccc(Cl)cc1.Oc1ccccc1-c1ccccc1.Oc1ccccc1-c1ccccc1` [Compound 9, chlorhexidine di-ortho phenyl phenol], the “% Inhibition (degree of inhibition)” value stood at 99% and the “MIC (minimum inhibitory concentration)” value was 3.13 µg/mL.

Take `N=C(NCCCCCCNC(=N)NC(N)=Nc1ccc(Cl)cc1)NC(N)=Nc1ccc(Cl)cc1.NCCCC(O)(P(=O)(O)O)P(=O)(O)O.NCCCC(O)(P(=O)(O)O)P(=O)(O)O` [Compound 7, chlorhexidine di [4-amino-1-hydroxybutylidene] bis-phosphonate]: the “% Inhibition (degree of inhibition)” value was 94% and the “MIC (minimum inhibitory concentration)” value amounted to 3.13 µg/mL.

On to `CCCCCCCCCCCC(=O)O.NC(=NCCCCCCN=C(N)N=C(N)Nc1ccc(Cl)cc1)N=C(N)Nc1ccc(Cl)cc1` [Compound 6, chlorhexidine dilaurate], for which the “% Inhibition (degree of inhibition)” value turned out to be 99% and the “MIC (minimum inhibitory concentration)” value came to 3.13 µg/mL.

On to `CCCCCCCCCCCCCCCCCC(=O)O.CCCCCCCCCCCCCCCCCC(=O)O.N=C(NCCCCCCNC(=N)NC(=N)Nc1ccc(Cl)cc1)NC(=N)Nc1ccc(Cl)cc1` [Compound 11, chlorhexidine distearate], for which the “% Inhibition (degree of inhibition)” value stood at 99% and the “MIC (minimum inhibitory concentration)” value amounted to 3.13 µg/mL.

On to “Isoniazide dodecyl benzene sulfonate [Compound 2]”, for which the “% Inhibition (degree of inhibition)” value was 99% and the “MIC (minimum inhibitory concentration)” value was determined as 0.78 µg/mL.

For `N=C(NCCCCCCNC(=N)NC(=N)Nc1ccc(Cl)cc1)NC(=N)Nc1ccc(Cl)cc1.Sc1nc2ccccc2s1.Sc1nc2ccccc2s1` [Compound 5, chlorhexidine di-2-mercaptobenzthiazole], the “% Inhibition (degree of inhibition)” value is given as 90% and the “MIC (minimum inhibitory concentration)” value was 1.56 µg/mL.

Turning to chlorhexidine dithymol [Compound 4], the “% Inhibition (degree of inhibition)” value stood at 98% and the “MIC (minimum inhibitory concentration)” value is 1.56 µg/mL.

Regarding “chlorhexidine beta cyclodextrin sulfobutyl ether [Compound 8]”, the “% Inhibition (degree of inhibition)” value is given as 94% and the “MIC (minimum inhibitory concentration)” value was 3.13 µg/mL.

On to “N-cocoylamide-L-argimine ethyl ester triclosanate [Compound 3]”, for which the “% Inhibition (degree of inhibition)” value was 94% and the “MIC (minimum inhibitory concentration)” value stood at 1.56 µg/mL.

(Values after US20060287257A1, “Pharmaceutical compositions to treat diseases caused by mycobacterium” (priority 2005, published 2006).)
